From article PMC2882332, “Species Used for Drug Testing Reveal Different Inhibition Susceptibility for 17beta-Hydroxysteroid Dehydrogenase Type 1” (PLoS ONE, 2010)
“Also recorded” adds a separate entry of the source.

How the values were obtained:
Assay type in all cases: biochemical
human 17β-HSD 1 = target: T1, human 17β-HSD 1 (Homo sapiens, UniProt P14061); assay: In vitro enzymatic activity, recombinant human 17β-HSD 1 (estrone reduction); conditions: for specificity for human 17β-HSD 1 over human 17β-HSD 2, 4, 5 and 7 (in words) / inhibition of the human 17β-HSD 1 reductive activity (in words): 2 µM; for specificity for human 17β-HSD 1 over human 17β-HSD 2, 4, 5 and 7 (in words): Figure 2, Table 3; for inhibition at 2 µM: human 17β-HSD 1, 2 µM compound, 15 nM 3H-estrone, NADPH, pH 6.6, read-out: Observed % inhibition; for inhibition of the human 17β-HSD 1 reductive activity (in words): Figure 2; for IC50: Human 17β-HSD 1, 0.005 µM to 5 µM inhibitor
T1 construct: Full length cDNAs of several 17β-HSDs type 1 originating from different species were cloned; made in house; host or cells: E.coli BL21 DE3 Codon Plus RP
T1 sequence (P14061 1-328): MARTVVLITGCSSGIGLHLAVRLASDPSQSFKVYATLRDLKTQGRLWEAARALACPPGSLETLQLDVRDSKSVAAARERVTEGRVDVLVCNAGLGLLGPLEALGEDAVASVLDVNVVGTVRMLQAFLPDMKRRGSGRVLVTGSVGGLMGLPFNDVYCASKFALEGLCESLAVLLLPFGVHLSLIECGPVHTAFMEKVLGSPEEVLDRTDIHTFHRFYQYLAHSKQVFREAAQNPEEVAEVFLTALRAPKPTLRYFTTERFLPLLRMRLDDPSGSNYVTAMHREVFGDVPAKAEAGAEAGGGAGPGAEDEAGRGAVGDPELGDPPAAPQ
Source text: (§1) Full length cDNAs of several 17β-HSDs type 1 originating from different species were cloned either into the pQE30 vector (human 17β-HSD 1, coding for acc. no. NP_000404) for expression as His-Tag protein or into a modified pGex-2T vector [63] (mouse 17β-HSD 1, acc. no. NP_034605; rat 17β-HSD 1, acc. no. NP_036983; marmoset 17β-HSD 1, acc. no. AAG01115; porcine 17β-HSD 1, acc. no. NP_001121944) for expression as GST-fusion proteins. The marmoset 17β-HSD 1 enzyme sequence was updated by the missing N-terminal part (AF272013) and the new porcine sequence was submitted to GenBank (NP_001121944). Human 17β-HSDs 2, 4, 5 (AKR1C3, the latter kindly provided by Dr. T. Penning) and 7 were all cloned into the modified pGEX-2T vector. For 17β-HSD 4 only the SDR-domain converting the steroids was subcloned. Plasmids were transformed into E.coli BL21 DE3 Codon Plus RP (Stratagene) and enzyme expression was induced by 0.5 mM IPTG. After 4h incubation at 37°C with continuous shaking bacteria were pelleted by centrifugation at 10.000×g. Pellets were stored until use at −20°C.
(§2) The bacteria containing recombinant enzymes were resuspended in PBS and enzymatic assays were performed in 100 mM sodium phosphate buffer at pH 6.6 for the reductive reaction and at pH 7.7 for the oxidative reaction. […] All substrates were purchased from NEN/Perkin Elmer. The cofactors NADPH (Sigma; for reductive reactions) and NAD^+ (Serva, for oxidative reactions) were used at final concentrations of 0.5 mg/ml. […] The incubation at 37°C was stopped with 0.21 M ascorbic acid in methanol∶acetic acid 99∶1 (v∶v) after the time needed to convert approximately 30% of the substrate in a control assay with 1% DMSO, without inhibitor candidates. […] The solvent used was acetonitrile∶water (43∶57, v∶v) at a flow rate of 1 ml/min. Radioactivity was detected by online-scintillation counting (Berthold LB506D) after mixing with ReadyFlowIII (Beckman). Conversion was calculated from integration of substrate and product peaks. […] All assays were run in duplicates of two independent experiments and mean values are reported. The IC50 values were determined by the One Ligand Binding model of SigmaPlot kinetics module.

human 17β-HSD 4 = target: T2, human 17β-HSD 4 (Homo sapiens, UniProt P51659); assay: In vitro enzymatic activity, recombinant human 17β-HSD 4 SDR-domain (estradiol oxidation); conditions: 2 µM compound, 21 nM 3H-estradiol, NAD+, pH 7.7
T2 construct: For 17β-HSD 4 only the SDR-domain converting the steroids was subcloned; made in house; host or cells: E.coli BL21 DE3 Codon Plus RP
T2 sequence (P51659 1-305 limits assumed): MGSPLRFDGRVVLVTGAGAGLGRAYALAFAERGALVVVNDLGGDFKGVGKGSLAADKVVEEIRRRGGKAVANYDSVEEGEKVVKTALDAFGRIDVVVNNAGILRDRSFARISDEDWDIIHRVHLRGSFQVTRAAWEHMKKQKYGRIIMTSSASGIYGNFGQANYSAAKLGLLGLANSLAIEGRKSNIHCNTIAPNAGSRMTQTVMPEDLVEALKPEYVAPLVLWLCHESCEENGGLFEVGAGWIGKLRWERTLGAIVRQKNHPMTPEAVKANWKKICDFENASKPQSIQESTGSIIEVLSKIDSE
Source text: as §1, §2

human 17β-HSD 7 = target: T3, human 17β-HSD 7 (Homo sapiens, UniProt P56937); assay: In vitro enzymatic activity, recombinant human 17β-HSD 7 (estrone reduction); conditions: 2 µM compound, 15 nM 3H-estrone, NADPH, pH 6.6, read-out: Observed % inhibition
T3 construct: made in house; host or cells: E.coli BL21 DE3 Codon Plus RP
T3 sequence (P56937 1-341): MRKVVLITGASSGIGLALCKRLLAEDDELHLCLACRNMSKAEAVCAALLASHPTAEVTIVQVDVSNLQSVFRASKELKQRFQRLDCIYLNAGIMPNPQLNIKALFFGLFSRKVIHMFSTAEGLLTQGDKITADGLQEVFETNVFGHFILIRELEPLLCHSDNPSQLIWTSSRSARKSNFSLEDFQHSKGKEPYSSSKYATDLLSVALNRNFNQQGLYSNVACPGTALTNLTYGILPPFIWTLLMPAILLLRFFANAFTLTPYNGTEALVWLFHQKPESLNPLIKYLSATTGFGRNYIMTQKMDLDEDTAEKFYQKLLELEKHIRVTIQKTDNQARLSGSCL
Source text: as §1, §2

mouse 17β-HSD 1 = target: T4, mouse 17β-HSD 1 (Mus musculus, UniProt P51656); assay: In vitro enzymatic activity, recombinant mouse 17β-HSD 1; conditions: 2 µM compound, 15 nM 3H-estrone, read-out: Observed % inhibition
T4 construct: Full length cDNAs of several 17β-HSDs type 1 originating from different species were cloned; made in house; host or cells: E.coli BL21 DE3 Codon Plus RP
T4 sequence (P51656 1-344): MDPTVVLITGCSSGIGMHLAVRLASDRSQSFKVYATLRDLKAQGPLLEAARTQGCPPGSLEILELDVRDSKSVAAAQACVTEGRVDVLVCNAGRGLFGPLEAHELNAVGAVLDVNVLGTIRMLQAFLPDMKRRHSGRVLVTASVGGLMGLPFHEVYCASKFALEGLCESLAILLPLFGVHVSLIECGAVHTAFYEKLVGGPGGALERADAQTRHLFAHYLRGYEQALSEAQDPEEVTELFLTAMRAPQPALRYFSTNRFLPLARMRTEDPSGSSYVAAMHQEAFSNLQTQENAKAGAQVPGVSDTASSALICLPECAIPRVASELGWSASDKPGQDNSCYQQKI
Source text: as §1, §2

SMILES: C[C@]12CC[C@@H]3c4ccc(O)cc4CC[C@H]3[C@@H]1[C@@H](CNC(=O)c1ccc(F)cc1)CC2=O [Compound 1]
- specificity for human 17β-HSD 1 over human 17β-HSD 2, 4, 5 and 7 (in words) (human 17β-HSD 1): most specific inhibitors
- inhibition at 2 µM (human 17β-HSD 1): 63.6%
- Observed % inhibition (human 17β-HSD 4): 7.2%
- inhibition at 2 µM (human 17β-HSD 7): -3.6%
- inhibition at 2 µM (mouse 17β-HSD 1): 27%

SMILES: C[C@]12CC[C@@H]3c4ccc(O)cc4CC[C@H]3[C@@H]1[C@@H](CCCC(=O)N1CCOCC1)CC2=O [Compound 2]
- inhibition of the human 17β-HSD 1 reductive activity (in words) (human 17β-HSD 1): high inhibition
- specificity for human 17β-HSD 1 over human 17β-HSD 2, 4, 5 and 7 (in words) (human 17β-HSD 1): very low inhibition of the other human 17β-HSDs; also recorded: most specific inhibitors
- IC50 (human 17β-HSD 1): 87.4 nM
- inhibition at 2 µM (human 17β-HSD 1): 94.7%
- Observed % inhibition (human 17β-HSD 4): 0.1%
- inhibition at 2 µM (human 17β-HSD 7): -7.1%
- inhibition at 2 µM (mouse 17β-HSD 1): -1.5%

SMILES: Cc1cnc(NC(=O)CC[C@@H]2CC(=O)[C@@]3(C)CC[C@@H]4c5ccc(O)cc5CC[C@H]4[C@H]23)s1 [Compound 3]
- inhibition of the human 17β-HSD 1 reductive activity (in words) (human 17β-HSD 1): high inhibition
- specificity for human 17β-HSD 1 over human 17β-HSD 2, 4, 5 and 7 (in words) (human 17β-HSD 1): very low inhibition of the other human 17β-HSDs; also recorded: most specific inhibitors
- IC50 (human 17β-HSD 1): 1.3 nM
- inhibition at 2 µM (human 17β-HSD 1): 97.9%
- Observed % inhibition (human 17β-HSD 4): 2.1%
- inhibition at 2 µM (human 17β-HSD 7): -9%
- inhibition at 2 µM (mouse 17β-HSD 1): 27%

SMILES: COc1ccc(-c2cn(CCC[C@H]3CC(=O)[C@@]4(C)CC[C@@H]5c6ccc(O)cc6CC[C@H]5[C@H]34)nn2)cc1 [Compound 4]
- inhibition at 2 µM (human 17β-HSD 1): 95.8%
- Observed % inhibition (human 17β-HSD 4): 5.5%
- inhibition at 2 µM (human 17β-HSD 7): -5.8%
- inhibition at 2 µM (mouse 17β-HSD 1): 18.5%

SMILES: C[C@]12CC[C@@H]3c4ccc(O)cc4CC[C@H]3[C@@H]1C[C@H](CC(=O)NCc1cccnc1)C2=O [Compound 5, reference compound]
- inhibition at 2 µM (human 17β-HSD 1): 100%
- Observed % inhibition (human 17β-HSD 4): 5.6%
- inhibition at 2 µM (human 17β-HSD 7): 0%
- inhibition at 2 µM (mouse 17β-HSD 1): 3.2%
